According to ChEMBL document CHEMBL5291721, “A preclinical secondary pharmacology resource illuminates target-adverse drug reaction associations of marketed drugs” (Nat Commun, 2023):

Legend:
[1] = biological target: Glutamate receptor ionotropic, NMDA 1 (Rattus norvegicus, UniProt P35439)
[2] = biological target: Beta-2 adrenergic receptor (Homo sapiens, UniProt P07550)
[3] = biological target: T1, Alpha-1A adrenergic receptor (Homo sapiens, UniProt P35348)
T1 sequence (P35348 whole entry): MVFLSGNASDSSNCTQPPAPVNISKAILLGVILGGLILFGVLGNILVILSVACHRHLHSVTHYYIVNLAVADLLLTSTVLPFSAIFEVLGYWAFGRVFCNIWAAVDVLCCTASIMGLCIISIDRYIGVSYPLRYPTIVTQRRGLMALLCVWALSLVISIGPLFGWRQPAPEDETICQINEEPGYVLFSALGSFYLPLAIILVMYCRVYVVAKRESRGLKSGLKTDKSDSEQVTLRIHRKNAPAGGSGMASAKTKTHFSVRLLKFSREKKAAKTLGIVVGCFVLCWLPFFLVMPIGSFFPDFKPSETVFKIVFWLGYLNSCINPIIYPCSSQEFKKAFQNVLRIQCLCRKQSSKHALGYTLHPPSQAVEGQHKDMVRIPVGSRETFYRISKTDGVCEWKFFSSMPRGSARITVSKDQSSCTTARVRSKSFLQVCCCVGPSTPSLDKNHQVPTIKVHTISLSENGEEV

[4] = biological target: Beta-1 adrenergic receptor (Homo sapiens, UniProt P08588); type: functional
[5] = biological target: Voltage-dependent L-type calcium channel subunit alpha-1C (Rattus norvegicus, UniProt P22002); type: functional
Sequence of Voltage-dependent L-type calcium channel subunit alpha-1C (Rattus norvegicus, UniProt P22002) (P22002 whole entry): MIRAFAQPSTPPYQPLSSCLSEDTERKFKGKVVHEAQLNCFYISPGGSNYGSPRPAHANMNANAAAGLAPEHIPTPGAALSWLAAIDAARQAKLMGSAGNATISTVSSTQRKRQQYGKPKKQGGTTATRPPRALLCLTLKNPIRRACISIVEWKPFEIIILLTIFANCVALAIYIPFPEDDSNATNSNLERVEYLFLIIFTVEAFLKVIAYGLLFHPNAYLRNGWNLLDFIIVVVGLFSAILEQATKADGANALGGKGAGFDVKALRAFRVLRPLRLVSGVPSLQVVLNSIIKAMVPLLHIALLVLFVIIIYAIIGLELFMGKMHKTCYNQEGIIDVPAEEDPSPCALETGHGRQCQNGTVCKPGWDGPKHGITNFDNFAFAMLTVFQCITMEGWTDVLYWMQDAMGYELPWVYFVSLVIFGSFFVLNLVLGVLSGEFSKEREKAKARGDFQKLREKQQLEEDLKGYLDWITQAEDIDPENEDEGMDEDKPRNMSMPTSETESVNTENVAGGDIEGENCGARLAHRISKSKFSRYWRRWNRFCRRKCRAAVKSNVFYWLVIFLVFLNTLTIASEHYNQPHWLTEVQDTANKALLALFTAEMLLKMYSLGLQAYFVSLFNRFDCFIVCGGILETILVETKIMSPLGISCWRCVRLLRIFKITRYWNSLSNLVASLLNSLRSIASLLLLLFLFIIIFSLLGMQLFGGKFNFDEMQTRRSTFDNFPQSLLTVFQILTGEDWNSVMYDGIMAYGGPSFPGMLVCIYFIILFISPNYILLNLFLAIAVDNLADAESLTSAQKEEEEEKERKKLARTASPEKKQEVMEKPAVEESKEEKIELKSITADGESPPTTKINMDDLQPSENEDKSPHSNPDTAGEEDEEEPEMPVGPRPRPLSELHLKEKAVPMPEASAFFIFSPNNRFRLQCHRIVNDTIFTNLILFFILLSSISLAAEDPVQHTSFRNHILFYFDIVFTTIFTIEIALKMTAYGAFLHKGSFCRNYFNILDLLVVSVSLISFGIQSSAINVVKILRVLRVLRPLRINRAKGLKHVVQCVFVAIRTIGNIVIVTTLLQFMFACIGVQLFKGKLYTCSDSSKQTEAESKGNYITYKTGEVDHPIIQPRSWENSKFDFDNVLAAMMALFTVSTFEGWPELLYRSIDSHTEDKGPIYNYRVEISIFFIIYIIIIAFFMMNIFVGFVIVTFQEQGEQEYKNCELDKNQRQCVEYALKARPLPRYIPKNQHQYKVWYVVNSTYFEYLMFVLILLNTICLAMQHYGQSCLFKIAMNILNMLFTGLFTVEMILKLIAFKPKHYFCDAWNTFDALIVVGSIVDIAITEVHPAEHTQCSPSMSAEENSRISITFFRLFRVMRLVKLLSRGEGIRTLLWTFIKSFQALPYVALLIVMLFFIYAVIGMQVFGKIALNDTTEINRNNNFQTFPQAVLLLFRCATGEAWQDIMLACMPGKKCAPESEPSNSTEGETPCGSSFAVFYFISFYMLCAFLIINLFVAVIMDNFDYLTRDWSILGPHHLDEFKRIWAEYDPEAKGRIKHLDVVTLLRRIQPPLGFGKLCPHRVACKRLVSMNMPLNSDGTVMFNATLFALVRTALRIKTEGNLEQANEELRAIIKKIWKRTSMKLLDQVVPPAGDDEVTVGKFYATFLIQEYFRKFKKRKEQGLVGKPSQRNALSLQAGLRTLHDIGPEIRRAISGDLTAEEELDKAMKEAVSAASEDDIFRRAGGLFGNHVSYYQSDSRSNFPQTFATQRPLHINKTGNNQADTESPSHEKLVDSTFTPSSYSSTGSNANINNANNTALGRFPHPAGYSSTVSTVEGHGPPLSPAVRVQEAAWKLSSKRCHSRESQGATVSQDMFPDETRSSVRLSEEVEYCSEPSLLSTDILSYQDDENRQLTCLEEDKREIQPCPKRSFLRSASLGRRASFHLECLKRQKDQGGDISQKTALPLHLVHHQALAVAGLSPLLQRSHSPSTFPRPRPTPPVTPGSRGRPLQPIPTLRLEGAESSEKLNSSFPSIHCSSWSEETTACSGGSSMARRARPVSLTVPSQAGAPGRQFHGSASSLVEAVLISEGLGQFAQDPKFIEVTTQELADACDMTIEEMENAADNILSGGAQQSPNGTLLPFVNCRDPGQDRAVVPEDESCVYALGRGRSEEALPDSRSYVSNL

[6] = biological target: Acetylcholinesterase (Homo sapiens, UniProt P22303); type: functional
Sequence of Acetylcholinesterase (P22303 whole entry): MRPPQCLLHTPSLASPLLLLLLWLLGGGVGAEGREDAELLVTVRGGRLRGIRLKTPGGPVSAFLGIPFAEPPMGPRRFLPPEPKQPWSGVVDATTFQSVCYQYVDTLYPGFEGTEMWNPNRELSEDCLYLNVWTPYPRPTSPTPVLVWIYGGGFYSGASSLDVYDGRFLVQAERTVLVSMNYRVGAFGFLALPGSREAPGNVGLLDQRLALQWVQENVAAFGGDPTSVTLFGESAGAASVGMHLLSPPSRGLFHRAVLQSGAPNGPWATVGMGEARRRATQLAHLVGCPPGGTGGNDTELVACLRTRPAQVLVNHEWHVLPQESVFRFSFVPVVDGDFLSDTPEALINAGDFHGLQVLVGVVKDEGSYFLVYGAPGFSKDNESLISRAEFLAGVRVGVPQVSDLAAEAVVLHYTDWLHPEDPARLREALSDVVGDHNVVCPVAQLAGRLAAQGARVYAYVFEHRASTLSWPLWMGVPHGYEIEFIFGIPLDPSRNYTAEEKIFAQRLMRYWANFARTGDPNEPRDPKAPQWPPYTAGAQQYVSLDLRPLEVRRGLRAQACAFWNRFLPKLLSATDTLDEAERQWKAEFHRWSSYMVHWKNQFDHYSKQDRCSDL

[7] = biological target: T2, Amine oxidase [flavin-containing] A (Homo sapiens, UniProt P21397); type: functional
T2 sequence (P21397 whole entry): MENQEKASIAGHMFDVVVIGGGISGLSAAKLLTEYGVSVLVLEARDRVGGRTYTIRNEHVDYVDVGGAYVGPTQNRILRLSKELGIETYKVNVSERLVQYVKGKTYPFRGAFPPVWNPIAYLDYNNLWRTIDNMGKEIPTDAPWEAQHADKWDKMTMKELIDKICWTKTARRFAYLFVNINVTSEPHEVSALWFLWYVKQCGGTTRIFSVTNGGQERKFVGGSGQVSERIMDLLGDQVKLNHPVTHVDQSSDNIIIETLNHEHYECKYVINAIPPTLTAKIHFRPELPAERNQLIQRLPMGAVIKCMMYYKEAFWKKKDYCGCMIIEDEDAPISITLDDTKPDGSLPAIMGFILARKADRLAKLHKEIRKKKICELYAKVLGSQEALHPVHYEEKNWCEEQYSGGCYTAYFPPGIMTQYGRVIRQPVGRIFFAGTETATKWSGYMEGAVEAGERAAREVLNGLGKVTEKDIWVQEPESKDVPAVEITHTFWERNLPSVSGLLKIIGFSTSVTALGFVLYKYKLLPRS

[8] = biological target: T3, Androgen receptor (Homo sapiens, UniProt P10275)
T3 sequence (P10275 whole entry): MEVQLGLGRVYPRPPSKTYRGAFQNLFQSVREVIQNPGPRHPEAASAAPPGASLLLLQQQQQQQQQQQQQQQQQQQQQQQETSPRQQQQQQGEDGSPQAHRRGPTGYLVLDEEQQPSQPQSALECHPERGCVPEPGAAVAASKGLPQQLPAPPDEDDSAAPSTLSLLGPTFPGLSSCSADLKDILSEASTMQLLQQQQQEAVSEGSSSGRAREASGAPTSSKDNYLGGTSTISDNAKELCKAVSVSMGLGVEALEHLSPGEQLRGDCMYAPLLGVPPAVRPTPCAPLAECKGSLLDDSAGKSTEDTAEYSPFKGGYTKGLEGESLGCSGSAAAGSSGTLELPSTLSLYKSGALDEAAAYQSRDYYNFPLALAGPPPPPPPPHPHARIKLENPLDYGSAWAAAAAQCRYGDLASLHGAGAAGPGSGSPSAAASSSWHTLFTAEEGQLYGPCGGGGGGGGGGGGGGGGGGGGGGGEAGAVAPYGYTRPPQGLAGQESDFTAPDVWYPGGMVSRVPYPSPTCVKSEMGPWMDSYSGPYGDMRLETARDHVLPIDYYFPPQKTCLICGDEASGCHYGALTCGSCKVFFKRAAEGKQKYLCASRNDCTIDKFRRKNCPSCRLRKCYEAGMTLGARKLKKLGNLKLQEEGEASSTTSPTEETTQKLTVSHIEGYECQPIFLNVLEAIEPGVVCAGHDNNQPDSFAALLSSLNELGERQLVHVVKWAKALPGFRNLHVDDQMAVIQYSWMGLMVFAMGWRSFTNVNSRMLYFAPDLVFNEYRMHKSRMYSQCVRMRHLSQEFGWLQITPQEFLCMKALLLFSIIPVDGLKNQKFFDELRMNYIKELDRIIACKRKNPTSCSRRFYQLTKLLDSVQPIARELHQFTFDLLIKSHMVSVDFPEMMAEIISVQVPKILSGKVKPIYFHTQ

[9] = biological target: Histamine H3 receptor (Homo sapiens, UniProt Q9Y5N1)
[10] = biological target: T1, Alpha-1A adrenergic receptor; type: functional, cell-based
[11] = biological target: Voltage-dependent L-type calcium channel subunit alpha-1C (Homo sapiens, UniProt Q13936); type: functional, cell-based
[12] = biological target: T4, Alpha-2A adrenergic receptor (Homo sapiens, UniProt P08913)
T4 sequence (P08913 whole entry): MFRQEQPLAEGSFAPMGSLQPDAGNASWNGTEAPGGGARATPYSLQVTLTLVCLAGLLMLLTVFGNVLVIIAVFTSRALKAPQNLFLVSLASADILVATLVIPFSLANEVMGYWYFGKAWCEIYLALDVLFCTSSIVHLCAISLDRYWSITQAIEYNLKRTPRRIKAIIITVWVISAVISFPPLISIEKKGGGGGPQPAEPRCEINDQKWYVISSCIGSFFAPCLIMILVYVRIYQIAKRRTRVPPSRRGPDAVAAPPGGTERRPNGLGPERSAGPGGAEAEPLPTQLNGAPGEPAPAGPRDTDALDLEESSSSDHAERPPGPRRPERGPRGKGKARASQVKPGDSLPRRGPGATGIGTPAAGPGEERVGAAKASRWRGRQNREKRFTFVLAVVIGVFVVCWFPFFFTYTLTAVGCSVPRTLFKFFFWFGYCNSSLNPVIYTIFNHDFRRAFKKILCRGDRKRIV

[13] = biological target: T1, Alpha-1A adrenergic receptor; type: functional, cell-based; remark: listed apart in the source
[14] = biological target: Epidermal growth factor receptor (Homo sapiens, UniProt P00533); type: functional
Sequence of Epidermal growth factor receptor (P00533 whole entry): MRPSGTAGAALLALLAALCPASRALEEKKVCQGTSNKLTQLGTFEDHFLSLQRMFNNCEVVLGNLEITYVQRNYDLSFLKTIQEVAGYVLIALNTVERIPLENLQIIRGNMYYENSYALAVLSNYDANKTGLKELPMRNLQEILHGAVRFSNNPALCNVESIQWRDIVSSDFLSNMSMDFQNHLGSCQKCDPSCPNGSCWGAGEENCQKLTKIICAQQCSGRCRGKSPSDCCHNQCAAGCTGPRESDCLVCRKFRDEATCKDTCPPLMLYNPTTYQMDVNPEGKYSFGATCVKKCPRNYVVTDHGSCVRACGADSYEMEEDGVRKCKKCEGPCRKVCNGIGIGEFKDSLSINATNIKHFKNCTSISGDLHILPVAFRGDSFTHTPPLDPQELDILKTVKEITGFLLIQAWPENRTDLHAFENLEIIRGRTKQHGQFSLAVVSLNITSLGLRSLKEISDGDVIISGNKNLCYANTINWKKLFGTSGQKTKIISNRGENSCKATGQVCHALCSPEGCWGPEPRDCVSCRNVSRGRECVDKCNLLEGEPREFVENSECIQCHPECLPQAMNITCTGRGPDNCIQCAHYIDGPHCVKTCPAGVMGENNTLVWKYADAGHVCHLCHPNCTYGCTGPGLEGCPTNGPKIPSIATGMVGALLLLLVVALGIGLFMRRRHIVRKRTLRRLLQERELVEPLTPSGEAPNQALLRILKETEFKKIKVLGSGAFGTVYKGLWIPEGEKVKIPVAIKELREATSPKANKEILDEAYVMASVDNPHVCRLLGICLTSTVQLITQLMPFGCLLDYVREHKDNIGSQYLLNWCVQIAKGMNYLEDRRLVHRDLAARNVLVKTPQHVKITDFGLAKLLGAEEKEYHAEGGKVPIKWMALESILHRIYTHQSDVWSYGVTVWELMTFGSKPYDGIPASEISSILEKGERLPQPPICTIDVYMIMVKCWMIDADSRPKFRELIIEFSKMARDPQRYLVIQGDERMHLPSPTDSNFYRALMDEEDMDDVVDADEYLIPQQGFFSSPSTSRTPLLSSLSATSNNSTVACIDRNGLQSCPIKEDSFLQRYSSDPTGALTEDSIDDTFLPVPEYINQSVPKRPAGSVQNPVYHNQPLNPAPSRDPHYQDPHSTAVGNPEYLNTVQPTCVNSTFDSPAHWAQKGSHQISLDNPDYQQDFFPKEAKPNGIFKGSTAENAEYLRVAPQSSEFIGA

[15] = biological target: Growth hormone secretagogue receptor type 1 (Homo sapiens, UniProt Q92847)
[16] = biological target: T5, Gamma-aminobutyric acid receptor subunit alpha-1 (Rattus norvegicus, UniProt P62813)
T5 sequence (P62813 whole entry): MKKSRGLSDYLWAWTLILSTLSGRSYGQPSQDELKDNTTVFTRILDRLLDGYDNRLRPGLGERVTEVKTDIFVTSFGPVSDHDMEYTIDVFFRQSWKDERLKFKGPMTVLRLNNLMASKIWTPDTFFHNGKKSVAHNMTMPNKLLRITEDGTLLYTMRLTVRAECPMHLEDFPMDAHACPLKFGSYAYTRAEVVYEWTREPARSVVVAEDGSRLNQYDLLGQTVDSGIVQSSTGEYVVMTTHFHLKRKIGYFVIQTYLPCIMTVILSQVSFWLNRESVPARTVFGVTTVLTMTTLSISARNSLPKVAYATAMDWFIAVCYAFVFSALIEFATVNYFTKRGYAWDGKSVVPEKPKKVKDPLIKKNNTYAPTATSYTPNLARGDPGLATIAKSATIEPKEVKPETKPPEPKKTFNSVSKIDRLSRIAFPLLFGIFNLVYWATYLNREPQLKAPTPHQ

[17] = biological target: T6, Mu-type opioid receptor (Homo sapiens, UniProt P35372); experiment: biochemical; type: functional
T6 sequence (P35372 whole entry): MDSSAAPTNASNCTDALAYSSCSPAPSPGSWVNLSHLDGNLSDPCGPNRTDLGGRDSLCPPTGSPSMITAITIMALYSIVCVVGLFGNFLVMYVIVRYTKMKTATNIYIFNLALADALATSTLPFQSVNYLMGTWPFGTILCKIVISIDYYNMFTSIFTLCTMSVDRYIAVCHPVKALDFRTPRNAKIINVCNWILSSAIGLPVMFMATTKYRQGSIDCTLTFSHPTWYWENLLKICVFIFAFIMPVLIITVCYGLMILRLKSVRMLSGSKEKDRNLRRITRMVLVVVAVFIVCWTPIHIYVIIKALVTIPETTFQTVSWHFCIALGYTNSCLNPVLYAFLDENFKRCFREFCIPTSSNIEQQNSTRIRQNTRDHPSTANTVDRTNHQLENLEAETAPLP

[18] = biological target: T6, Mu-type opioid receptor
[19] = biological target: Kappa-type opioid receptor (Homo sapiens, UniProt P41145)
[20] = biological target: Delta-type opioid receptor (Homo sapiens, UniProt P41143)
[21] = biological target: T5, Gamma-aminobutyric acid receptor subunit alpha-1; type: functional
[22] = biological target: Sodium-dependent noradrenaline transporter (Homo sapiens, UniProt P23975)
[23] = biological target: Neuronal acetylcholine receptor subunit alpha-4 (Homo sapiens, UniProt P43681)
[24] = biological target: Voltage-gated inwardly rectifying potassium channel KCNH2 (Homo sapiens, UniProt Q12809); type: functional
[25] = biological target: T7, Thromboxane A2 receptor (Homo sapiens, UniProt P21731); type: functional, cell-based
T7 sequence (P21731 whole entry): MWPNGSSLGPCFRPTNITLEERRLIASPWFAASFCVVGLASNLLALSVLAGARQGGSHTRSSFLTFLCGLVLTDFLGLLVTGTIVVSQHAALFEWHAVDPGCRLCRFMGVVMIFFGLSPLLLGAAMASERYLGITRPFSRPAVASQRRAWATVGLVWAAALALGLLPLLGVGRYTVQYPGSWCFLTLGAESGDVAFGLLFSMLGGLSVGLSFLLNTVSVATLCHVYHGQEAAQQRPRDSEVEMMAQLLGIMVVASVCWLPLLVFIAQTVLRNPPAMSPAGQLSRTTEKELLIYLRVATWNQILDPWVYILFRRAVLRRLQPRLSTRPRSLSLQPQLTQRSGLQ
Note: assay procedure not described here.

## CCc1cc(C(N)=S)ccn1 [ETHIONAMIDE]
[1]
  AC50: > 10 µM
[2]
  AC50: > 10 µM
[3]
  AC50: > 10 µM
[4]
  AC50: > 10 µM
[5]
  AC50: > 10 µM

## CC(C)Oc1ccc2c(=O)c(-c3ccccc3)coc2c1 [IPRIFLAVONE]
[6]
  AC50: > 30 µM

## N=C(N)c1ccc(OCCCCCOc2ccc(C(=N)N)cc2)cc1 [PENTAMIDINE]
[6]
  AC50: 7.28 µM

## c1ccc(C2(c3ccccc3)CC2C2=NCCN2)cc1 (centres undefined) [CIFENLINE]
[7]
  AC50: > 30 µM
[8]
  AC50: 22.6 µM
[9]
  AC50: > 30 µM
[6]
  AC50: > 30 µM
[10]
  AC50: > 30 µM
[11]
  AC50: > 50 µM
[12]
  AC50: > 30 µM
[13]
  AC50: > 30 µM

## O=C(O)Cc1cc(I)c(Oc2ccc(O)c(I)c2)c(I)c1 [TIRATRICOL]
[14]
  AC50: > 30 µM
[15]
  AC50: > 30 µM

## CSCC[C@H](NC(=O)[C@H](Cc1c[nH]c2ccccc12)NC(=O)CCNC(=O)OC(C)(C)C)C(=O)N[C@@H](CC(=O)O)C(=O)N[C@@H](Cc1ccccc1)C(N)=O [PENTAGASTRIN]
[16]
  AC50: > 10 µM
[1]
  AC50: > 10 µM
[17]
  AC50: > 30 µM
[18]
  AC50: > 30 µM
[19]
  AC50: > 10 µM
[20]
  AC50: > 30 µM
[21]
  AC50: > 10 µM
[22]
  AC50: > 10 µM
[5]
  AC50: > 10 µM
[23]
  AC50: > 10 µM
[24]
  AC50: > 30 µM

## CCCCC[C@H](O)/C=C/[C@@H]1[C@@H](C/C=C\CCCC(=O)O)[C@@H](O)C[C@H]1O [DINOPROST]
[25]
  AC50: 2760 nM
